From patent publication US8173768B2, “Peptides having antimicrobial and neurotrophic activity and uses thereof” (priority 2009, dated 2012)
Bridge positions count the residues as written; N and C are the ends. Square brackets hold non-standard residues; d marks the D form. Ends that are not written are not given here. Peptide text beside a SMILES is read from it. Phe(ol) = N[C@H](CO)Cc1ccccc1; Aib = CC(C)(N)C(=O)O

Columns and labels:
[1] = pore-forming activity (dissipation of membrane potential in liposomes); type: biochemical
Experimental: Antimicrobial assays: After each purification step, antibacterial activity was monitored by a solid plate assay as described in previous studies (14). The minimal inhibitory concentration (MIC) and the minimal bactericidal concentration (MBC) were determined according to the method of Hancock (http://cmdr.ubc.ca/bobh/showmethod.php?methodid=79). Permeabilization of bacterial membranes and pore-forming activity were assayed as previously described (Herbst, R et al. (2002), J Biol Chem 277:22353-22360; Leippe, M. et al. 1991. Proc Natl Acad Sci USA 88:7659-7663).
No activity was found towards the Gram negative A. hydrophila at the same concentration. […] Since neuromacin contains four histidine residues in its primary structure (in contrast to none in theromacin), we evaluated the effect of a more acidic pH, at which the histidine residues are protonated, on the membrane-permeabilizing activity (FIG. 5B). […] Similar activity against the Gram-negative representative E. coli was not detected up to a neuromacin concentration of 25 μM (data not shown). We also measured the pore-forming activity of neuromacin to further characterize its mode of action by using a minimalistic membrane system. More precisely, we monitored the dissipation of a membrane potential induced in liposomes composed of azolectin, a crude phospholipid mixture from soy bean.

[2] = system: Gram negative A. hydrophila; assay: liquid growth inhibition assay; type: cell-based, Aeromonas hydrophila; conditions: at the same concentration as against M. nishinomiyaensis
Description: Microorganisms: The Gram-positive and Gram-negative bacteria Micrococcus nishinomiyaensis and Aeromonas hydrophila respectively were isolated from the natural environment of Hirudo medicinalis. These bacterial colonies, which are present in the water, were selected from agar plate under aerobic conditions at room temperature using a random isolation grid. The Gram-positive bacteria Bacillus megaterium was used for the SYTOX Green assay.
(§1) Antimicrobial assays: After each purification step, antibacterial activity was monitored by a solid plate assay as described in previous studies (14). The minimal inhibitory concentration (MIC) and the minimal bactericidal concentration (MBC) were determined according to the method of Hancock (http://cmdr.ubc.ca/bobh/showmethod.php?methodid=79). […]
No activity was found towards the Gram negative A. hydrophila at the same concentration. […] Since neuromacin contains four histidine residues in its primary structure (in contrast to none in theromacin), we evaluated the effect of a more acidic pH, at which the histidine residues are protonated, on the membrane-permeabilizing activity (FIG. 5B). […] Similar activity against the Gram-negative representative E. coli was not detected up to a neuromacin concentration of 25 μM (data not shown). […]

axotomized nerve cords = assay: regeneration of axotomized leech nerve cord ex vivo (time-lapse); parameters: species or system Hirudo medicinalis; conditions: native neuromacin 4 μM, aseptic conditions; 4 days without neuromacin
Experimental: Collection and treatment of the nerve cords: Adult leeches, Hirudo medicinalis species, weighting 2-3 g were purchased from a commercial supplier (Ricarampex, France). Animals were kept in artificial pond water and starved up to 3 weeks before use. Leeches were anaesthetised in 10% ethanol-spring water for 20 min and the nerve cords were removed according to the protocol of Nicholls et al (J Neurophysiol, 1968, 31:740-756.). After three successive baths in antibiotics, cords were placed in Leibowitz-15 (L-15, Gibco) culture medium supplemented with 2% fetal calf serum, 0.6% glucose and gentamicin ([…]) (Nature, 1979, 281:67-69). Connectives between ganglia were injured in a standard manner using a pair of sterilized fine iridectomy scissors. Axotomized nerve cords were separately incubated in L-15 medium containing different microbial components: 3×10^7 CFU/ml of heat killed or live bacteria, 10 μg/ml of polyI:C (Invivogen), 100 μg/ml of zymosan (Invivogen,) and 100 μg/ml of mannane (Invivogen) for different time (t=0 to t=8 days) at room temperature. Incubations without microbial components or bacteria were performed in the same conditions as controls. All the steps were performed under sterile conditions. […]

B. megaterium = assay: SYTOX Green membrane permeabilization assay; type: cell-based, Bacillus megaterium
Experimental: FIG. 5 illustrates membrane permeabilization of B. megaterium induced by neuromacin. Membrane damage of the bacteria was measured fluorometrically using the dye SYTOX Green. […] Antibacterial activity of the peptides is expressed as a percentage of permeabilized bacteria. (A) Time kinetics of membrane permeabilization induced by neuromacin measured for different doses at various incubation periods. (B) Membrane permeabilizing effects of neuromacin (rhombs) in comparison with cecropin P1 (triangles) and magainin II (circles) after 30 min of incubation of B. megaterium with each peptide at various concentrations, at pH 5.2 (open symbols) and at pH 7.4 (closed symbols). […]
as §1
No activity was found towards the Gram negative A. hydrophila at the same concentration. […] Since neuromacin contains four histidine residues in its primary structure (in contrast to none in theromacin), we evaluated the effect of a more acidic pH, at which the histidine residues are protonated, on the membrane-permeabilizing activity (FIG. 5B). […]

Row | Compound | pore-forming activity ([1]; positive control at 50 nM (data not shown)) | activity towards A. hydrophila [2] | start of reconnection post-axotomy (axotomized nerve cords) | pore-forming activity ([1]; final concentrations up to 2 μM (data not shown)) | activity relative to cecropin P1 and magainin II (B. megaterium; B. megaterium, within the measurement period) | efficacy to induce membrane lesions, effect of pH (B. megaterium; pH 5.2 versus pH 7.4, FIG. 5B)
1 | CC(=O)NC(C)(C)C(=O)N1CCC[C@H]1C(=O)NC(C)(C)C(=O)N[C@@H](C)C(=O)NC(C)(C)C(=O)N[C@@H](C)C(=O)N[C@@H](CCC(N)=O)C(=O)NC(C)(C)C(=O)N[C@H](C(=O)NC(C)(C)C(=O)NCC(=O)N[C@@H](CC(C)C)C(=O)NC(C)(C)C(=O)N1CCC[C@H]1C(=O)N[C@H](C(=O)NC(C)(C)C(=O)NC(C)(C)C(=O)N[C@@H](CCC(=O)O)C(=O)N[C@@H](CCC(N)=O)C(=O)N[C@H](CO)Cc1ccccc1)C(C)C)C(C)C [alamethicin, reference compound] (Ac-[Aib]P[Aib]A[Aib]AQ[Aib]V[Aib]GL[Aib]PV[Aib][Aib]EQ[Phe(ol)]) | very strong signal |  |  |  |  | 
2 | H-DCYEDWSRCTPGTSFLTGILWKDCHSRCKELGHRGGRCVDSPSKHCPGVLKNNKQCHCY (disulfide 2-46, 9-38, 24-56, 28-58) [neuromacin] |  | No activity | less than 24 hours | not detected | over one order of magnitude lower | weaker at pH 5.2 than at pH 7.4
